The values below come from US20040214832A1, “Piperazine derivative renin inhibitors” (priority 2003, published 2004).

Each structure is given as a SMILES string. Some results are limits rather than exact numbers.

The target in the experiment is T1, human renin (Homo sapiens, UniProt P00797).
T1 sequence (P00797 67-406): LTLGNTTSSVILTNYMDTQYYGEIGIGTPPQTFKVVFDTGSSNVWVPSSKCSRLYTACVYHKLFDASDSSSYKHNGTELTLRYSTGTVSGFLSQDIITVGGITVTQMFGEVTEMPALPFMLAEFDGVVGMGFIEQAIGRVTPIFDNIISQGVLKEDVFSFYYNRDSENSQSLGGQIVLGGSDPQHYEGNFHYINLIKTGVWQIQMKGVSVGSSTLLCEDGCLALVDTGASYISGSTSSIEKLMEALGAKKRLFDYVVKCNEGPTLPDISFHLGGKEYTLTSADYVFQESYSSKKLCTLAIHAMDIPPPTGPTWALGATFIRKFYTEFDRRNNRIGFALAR
Kind of experiment: Determination of renin IC50 by tGFP FRET assay. Type of experiment: biochemical. The conditions noted are these: Human recombinant renin, tandem GFP substrate 650 nM, 60 min incubation with compound, pH 7.4, 11-point curve. An excerpt:
Determination of Renin IC50 by tGFP FRET Assay
The tGFP FRET (fluorescence resonance energy transfer) assay utilizes a tandem GFP substrate (60 kDa, Discovery Technologies) containing nine amino acid recognition sequences for human renin flanked by two GFP proteins. The assay is used to determine the ability of a compound to act as an inhibitor of renin enzymatic activity by determination of that concentration of test compound that inhibits by 50% (IC50) the ability of renin to cleave the tandem GFP substrate. The IC50 values are determined over an 11-point curve at concentrations of 100 μM to 1 pM. Each compound concentration used to construct the curve was dependent on renin inhibitor potency. For example, subnanomolar IC50 values were determined over an 11-point curve at concentrations of 10 μM to 1 pM. All other IC50 values were determined over an 11-point curve at concentrations of 100 μM to 0.0065 μM. The concentrations were achieved by diluting a 9.1 nM stock of Human recombinant renin in the appropriate amount of buffer containing 50 mM HEPES, 1 mM EDTA, 1% PEG (8000 MW), 1 mM DTT, 0.1% BSA, pH 7.4 to achieve the final concentration of 50.4 μIU. The tGFP substrate stock solution of 43 μM was diluted with the appropriate amount of the above buffer to obtain the final concentration of 650 nM. In addition, 1 μl of the compound is diluted in dimethylsulfoxide (DMSO) to represent an […] log scale (5% final). The SR renin and compound are added to a 384 capacity plate by an automated robot (BIOMEK). The plate is incubated for 60 minutes; upon completion the tGFP substrate is added.
The IC50 is determined by monitoring the increase in […] at 432/432 nm excitation, 530/475 nm emission with a cutoff at 515/455 nm, in a fluorometric plate reader.
One may read the IC50 as the concentration that inhibits the measured activity by half. On to `COc1ccccc1COCCCOc1ccc(N2C(=O)CNC[C@H]2COc2ccc3ccccc3c2)cc1` [Example 1, (6S)-1-{4-[3-(2-methoxybenzyloxy)-propoxy]-phenyl}-6-(naphthalen-2-yloxymethyl)-piperazin-2-one], for which the IC50 is 66 nM.
As for `COc1ccccc1COCCCOc1ccc(N2C(=O)CNC[C@@H]2COCc2ccc(Cl)c(Cl)c2)cc1` [Example 2, (6R)-6-(3,4-dichlorobenzyloxymethyl)-1-{4-[3-(2-methoxybenzyloxy)-propoxy]-phenyl}-piperazin-2-one], the IC50 turned out to be 181 nM.
`COc1ccccc1COCCCOc1ccc(N2C(=O)CNC[C@@H]2COCc2ccccc2F)cc1` [Example 3, (6R)-6-(2-fluorobenzyloxymethyl)-1-{4-[3-(2-methoxybenzyloxy)-propoxy]-phenyl}-piperazin-2-one]: the IC50 turned out to be 225 nM.
In the case of `COc1ccccc1COCCCOc1ccc(N2C(=O)CNC[C@@H]2COCc2ccc(F)c(F)c2)cc1` [Example 4, (6R)-6-(3,4-difluorobenzyloxymethyl)-1-{4-[3-(2-methoxybenzyloxy)-propoxy]-phenyl}-piperazin-2-one] it was 246 nM.
As for `COc1ccccc1COCCCOc1ccc(N2C(=O)CNC[C@@H]2COCc2ccc(Cl)cc2)cc1` [Example 5, (6R)-6-(4-chlorobenzyloxymethyl)-1-{4-[3-(2-methoxybenzyloxy)-propoxy]-phenyl}-piperazin-2-one], the figure is 295 nM; as for `COc1ccccc1COCCCOc1ccc(N2C(=O)CNC[C@@H]2COCc2cccc(Cl)c2)cc1` [Example 6, (6R)-6-(3-chlorobenzyloxymethyl)-1-{4-[3-(2-methoxybenzyloxy)-propoxy]-phenyl}-piperazin-2-one], 325 nM.
As for `COc1ccccc1COCCCOc1ccc(N2C(=O)CNC[C@@H]2COCc2ccc(C)cc2)cc1` [Example 7, (6R)-1-{4-[3-(2-methoxybenzyloxy)-propoxy]-phenyl}-6-(4-methylbenzyloxymethyl)-piperazin-2-one], the figure is 337 nM; as for `COc1ccccc1COCCCOc1ccc(N2C(=O)CNC[C@@H]2COCc2ccc(F)cc2)cc1` [Example 8, (6R)-6-(4-fluorobenzyloxymethyl)-1-{4-[3-(2-methoxybenzyloxy)-propoxy]-phenyl}-piperazin-2-one], 454 nM; as for `COc1cccc(COC[C@H]2CNCC(=O)N2c2ccc(OCCCOCc3ccccc3OC)cc2)c1` [Example 9, (6R)-6-(3-methoxybenzyloxymethyl)-1-{4-[3-(2-methoxybenzyloxy)-propoxy]-phenyl}-piperazin-2-one], 612 nM.
Regarding `COc1ccccc1COCCCOc1ccc(N2C(=O)CNC[C@@H]2COCc2ccccc2OC)cc1` [Example 10, (6R)-6-(2-methoxybenzyloxymethyl)-1-{4-[3-(2-methoxybenzyloxy)-propoxy]-phenyl}-piperazin-2-one], the IC50 was found to be 880 nM.
In the case of `COc1ccccc1COCCCOc1ccc(N2C(=O)CNC[C@@H]2COCc2cc(F)cc(F)c2)cc1` [Example 11, (6R)-6-(3,5-difluorobenzyloxymethyl)-1-{4-[3-(2-methoxybenzyloxy)-propoxy]-phenyl}-piperazin-2-one] it was 1570 nM; in that of `COc1ccc(COC[C@H]2CNCC(=O)N2c2ccc(OCCCOCc3ccccc3OC)cc2)cc1` [Example 12, (6R)-6-(4-methoxybenzyloxymethyl)-1-{4-[3-(2-methoxybenzyloxy)-propoxy]-phenyl}-piperazin-2-one], 3860 nM; in that of `COc1ccccc1COCCCOc1ccc(N2C(=O)CNC[C@@H]2COCc2ccc(C(F)(F)F)cc2)cc1` [Example 13, (6R)-1-{4-[3-(2-methoxybenzyloxy)-propoxy]-phenyl}-6-(4-trifluoromethylbenzyloxymethyl)-piperazin-2-one], 68 nM.
As to `COc1ccccc1COCCCOc1ccc(N2C(=O)CNC[C@@H]2COCc2ccccc2Cl)cc1` [Example 14, (6R)-6-(2-chlorobenzyloxymethyl)-1-{4-[3-(2-methoxybenzyloxy)-propoxy]-phenyl}-piperazin-2-one], the IC50 worked out at 223 nM.
As for `COc1ccccc1COCCCOc1ccc(N2C(=O)CNC[C@@H]2COCc2cccc(C)c2)cc1` [Example 15, (6R)-1-{4-[3-(2-methoxybenzyloxy)-propoxy]-phenyl}-6-(3-methylbenzyloxymethyl)-piperazin-2-one], the IC50 worked out at 372 nM.
In the case of `COc1ccccc1COCCCOc1ccc(N2C(=O)CNC[C@@H]2COCc2c(F)cccc2F)cc1` [Example 16, (6R)-6-(2,6-difluorobenzyloxymethyl)-1-{4-[3-(2-methoxybenzyloxy)-propoxy]-phenyl}-piperazin-2-one], the IC50 is over 1000 nM.
In the case of `COc1ccccc1COCCCOc1ccc(N2C(=O)CNC[C@@H]2COCc2c(Cl)cccc2Cl)cc1` [Example 17, (6R)-6-(2,6-dichlorobenzyloxymethyl)-1-{4-[3-(2-methoxybenzyloxy)-propoxy]-phenyl}-piperazin-2-one] it was over 1000 nM; in that of `COc1ccccc1COCCCOc1ccc(N2C(=O)CNC[C@@H]2COCc2cccc(F)c2)cc1` [Example 18, (6R)-6-(3-fluorobenzyloxymethyl)-1-{4-[3-(2-methoxybenzyloxy)-propoxy]-phenyl}-piperazin-2-one], over 1000 nM; in that of `COc1ccccc1COCCCOc1ccc(N2C(=O)CNC[C@@H]2COCc2ccc(F)cc2C(F)(F)F)cc1` [Example 19, (6R)-6-(4-fluoro-2-trifluoromethylbenzyloxymethyl)-1-{4-[3-(2-methoxybenzyloxy)-propoxy]-phenyl}-piperazin-2-one], over 1000 nM.
In the case of `COc1ccccc1COCCCOc1ccc(N2C(=O)CNC[C@@H]2COCc2cc(Cl)cc(Cl)c2)cc1` [Example 20, (6R)-6-(3,5-dichlorobenzyloxymethyl)-1-{4-[3-(2-methoxybenzyloxy)-propoxy]-phenyl}-piperazin-2-one] it was over 1000 nM; in that of `COc1ccccc1COCCCOc1ccc(N2C(=O)CNC[C@@H]2COCc2ccccc2C)cc1` [Example 21, (6R)-1-{4-[3-(2-methoxybenzyloxy)-propoxy]-phenyl}-6-(2-methylbenzyloxymethyl)-piperazin-2-one], over 1000 nM.
In the case of `COc1ccccc1COCCCOc1ccc(N2C(=O)CNC[C@@H]2COCc2ccc(F)cc2Cl)cc1` [Example 22, (6R)-6-(2-chloro-4-fluorobenzyloxymethyl)-1-{4-[3-(2-methoxybenzyloxy)-propoxy]-phenyl}-piperazin-2-one] it was over 1000 nM; in that of `COc1ccccc1COCCCOc1ccc(N2C(=O)CNC[C@@H]2COCc2cccnc2)cc1` [Example 23, (6R)-1-{4-[3-(2-methoxybenzyloxy)-propoxy]-phenyl}-6-(pyridin-3-ylmethoxymethyl)-piperazin-2-one], 117 nM.
Turning to `COc1ccccc1COCCCOc1ccc(N2C(=O)CNC[C@@H]2COCc2ccc(Cl)c(C(F)(F)F)c2)cc1` [Example 24, (6R)-6-(4-chloro-3-trifluoromethylbenzyloxymethyl)-1-{4-[3-(2-methoxybenzyloxy)-propoxy]-phenyl}-piperazin-2-one], the IC50 was 107 nM.
As for `COc1ccccc1COCCCOc1ccc(N2C(=O)CNC[C@@H]2COCc2ccncc2)cc1` [Example 25, (6R)-1-{4-[3-(2-methoxybenzyloxy)-propoxy]-phenyl}-6-(pyridin-4-ylmethoxymethyl)-piperazin-2-one], the figure is over 1000 nM.
In the case of `COc1ccccc1COCCCOc1ccc(N2C(=O)CNC[C@@H]2COCc2ccc(F)c(C(F)(F)F)c2)cc1` [Example 26, (6R)-6-(4-fluoro-3-trifluoromethylbenzyloxymethyl)-1-{4-[3-(2-methoxybenzyloxy)-propoxy]-phenyl}-piperazin-2-one] it was 132 nM; in that of `COc1ccccc1COCCCOc1ccc(N2C(=O)CNC[C@@H]2COCc2ccc(F)c(C)c2)cc1` [Example 27, (6R)-6-(4-fluoro-3-methylbenzyloxymethyl)-1-{4-[3-(2-methoxybenzyloxy)-propoxy]-phenyl}-piperazin-2-one], over 1000 nM; in that of `COc1ccccc1COCCCOc1ccc(N2C(=O)CNC[C@@H]2COCc2ccc(C#N)cc2)cc1` [Example 28, (6R)-4-(1-{4-[3-(2-methoxybenzyloxy)-propoxy]-phenyl}-6-oxopiperazin-2-ylmethoxymethyl)-benzonitrile], over 1000 nM.
